Experimental data: patent publication US8063221B2, “Aminoquinolones as GSK-3 inhibitors” (Kyorin Pharmaceutical Co., Ltd., priority 2006, dated 2011)
In brackets after ≈: the same amount, converted by molar mass. Like-named read-outs stand apart in the source and are kept apart here.

How the values were obtained:
[1] = Animal Study 2 (oral glucose tolerance test); parameters: species or system Crlj:CD1 (ICR) mice; settings: Mus musculus, read-out: In vivo studies 300 mg/kg (oral glucose tolerance test, % decrease)
Excerpt: The results of in vivo oral glucose tolerance test (Example 39), expressed as % decrease, are presented as follows: […]
Animal Study 2 (Oral Glucose Tolerance Test)
Male Crlj:CD1 (ICR) mice were obtained from Charles River Laboratries Japan (Yokohama, Japan). All mice were given a standard diet (Clea Japan, Tokyo, Japan) and tap water ad libitum. All institutional guidelines for animal care and use were applied in this study. Test compounds were suspended in 0.3% carboxymethyl-cellulose sodium salt (CMC-Na; Sigma, St. Louis, Mo.). After fasting for 15-17 hr, the test compound (300 mg/kg) or vehicle (0.3% CMC-Na) was orally administered to 7-week-old ICR mice. Glucose solution (5 g/kg) was orally administered at 30 min after test compound treatment. Blood samples were collected from tail vein using capillary tubes containing EDTA·2K before test compound treatment, and at 0, 0.5, 1, and 2 hr after glucose load. The blood samples were centrifuged at 2,500×g for 5 min and separated plasma was kept on ice and analyzed in the same day. Plasma glucose levels were determined using the glucose C II-test (Wako Pure Chemical Industries, Osaka, Japan).
The sum of plasma glucose levels at 0.5 and 1 hr after glucose load was compared to that of vehicle treatment, and results were presented as percent decrease.

[2] = target: T1, recombinant full-length human GSK3β (Homo sapiens, UniProt P49841); assay: Luciferase-coupled cell-free GSK3β kinase assay; format: biochemical
T1 construct: recombinant full-length human GSK3β (Upstate); purchased Upstate
T1 sequence (P49841 whole entry): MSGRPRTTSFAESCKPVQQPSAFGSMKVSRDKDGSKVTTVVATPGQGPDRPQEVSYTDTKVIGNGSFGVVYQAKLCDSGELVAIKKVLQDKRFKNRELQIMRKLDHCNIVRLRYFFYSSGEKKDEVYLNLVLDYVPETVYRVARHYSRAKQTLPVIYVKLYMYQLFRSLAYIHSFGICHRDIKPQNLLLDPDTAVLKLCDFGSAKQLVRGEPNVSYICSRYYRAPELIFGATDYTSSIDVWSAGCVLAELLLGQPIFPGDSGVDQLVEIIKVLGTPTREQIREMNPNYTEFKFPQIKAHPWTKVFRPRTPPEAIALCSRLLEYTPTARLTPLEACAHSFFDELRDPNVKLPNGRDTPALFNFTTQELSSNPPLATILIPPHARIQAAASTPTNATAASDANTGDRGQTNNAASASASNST
Outline: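 GSK3β, 10-25 ng, was incubated with compound for 1 h at 30° C in MOPS pH 7.0 buffer containing 62.5 μM phospho-glycogen synthase peptide-2 and 5 μM ATP. Remaining ATP was read by KinaseGlo luminescence, and IC50 was fitted from % inhibition relative to maximal inhibition.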

E. coli, ATCC8739 = assay: Antibacterial activity (MIC), E. coli; format: cell-based; settings: Escherichia coli, E. coli ATCC8739
Outline: (§1)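 MIC, the lowest compound concentration inhibiting bacterial growth in culture medium, determined by dilution method per CLSI M7-A4 guidance; reported in μM.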

S. aureus Smith = assay: Antibacterial activity (MIC), S. aureus; format: cell-based; settings: Staphylococcus aureus
Outline: as §1

[3] = ATCC8739, Table 1, read-out: Antibacterial MIC (μM) E.Coli
[4] = Table 1, read-out: Antibacterial MIC (μM) S. aureus Smith
[5] = Table 2, 300 mg/kg oral, ICR mice, plasma glucose 0.5 and 1 hr after glucose load vs vehicle
[6] = ATCC8739, Table 2, read-out: Antimicrobial MIC [μM] E. Coli
[7] = Table 2, S. aureus Smith, read-out: Antimicrobial MIC [μM] S. aureus

Compound: CC(C)[C@H]1COc2c(NCCNc3ccccn3)c(F)c(N)c3c(=O)c(C(=O)O)cn1c23 [compound 61]
- inhibition in vivo at 300 mg/kg ([1]; po): 10 to 20%

Compound: COc1c(NCCNc2cccc3ccccc23)c(F)c(N)c2c(=O)c(C(=O)O)cn(C3CC3)c12 [compound 70]
- IC50 ([2]; Table 1): < 100 nM
- MIC (E. coli, ATCC8739; [3]): > 50 µM
- MIC (S. aureus Smith; [4]): 0.5 to 10 µM (≈ 0.238 to 4.77 µg/mL)
- inhibition in vivo at 300 mg/kg ([1]; Table 1, 300 mg/kg oral, ICR mice, plasma glucose 0.5 and 1 hr after glucose load vs vehicle): < 5%

Compound: C[C@H]1COc2c(NCCOc3ccc(F)cc3)c(F)c(N)c3c(=O)c(C(=O)O)cn1c23 [Example 101]
- IC50 ([2]; Table 2): < 100 nM
- inhibition in vivo at 300 mg/kg [1, 5]: 10 to 20%

Compound: Cc1nn(C)c(C)c1CCCNc1c(F)c(N)c2c(=O)c(C(=O)O)cn3c2c1OC[C@@H]3C [Example 93]
- inhibition in vivo at 300 mg/kg [1, 5]: > 20%

Compound: CC1(C)CCOc2c(NCCNc3ccccn3)c(F)c(N)c3c(=O)c(C(=O)O)cn1c23 [Example 139]
- IC50 ([2]; Table 2): 100 to 500 nM
- MIC (E. coli, ATCC8739; [6]): > 50 µM
- MIC (S. aureus Smith; [7]): > 50 µM
- inhibition in vivo at 300 mg/kg [1, 5]: > 20%

Compound: C[C@H]1COc2c(NCCCc3ccccn3)c(F)c(N)c3c(=O)c(C#N)cn1c23 [Example 115]
- IC50 ([2]; Table 2): < 100 nM
- inhibition in vivo at 300 mg/kg [1, 5]: < 5%

Compound: CCN(CCCNc1c(F)c(N)c2c(=O)c(C(=O)O)cn3c2c1OC[C@@H]3C)c1ccccc1 [compound 76]
- IC50 ([2]; Table 2): < 100 nM
- inhibition in vivo at 300 mg/kg [1, 5]: > 20%

Compound: CC(C)C[C@H]1COc2c(NCCCn3cnc4ccccc43)c(F)c(N)c3c(=O)c(C(=O)O)cn1c23 [compound 49]
- inhibition in vivo at 300 mg/kg ([1]; po): 10 to 20%

Compound: C[C@H]1COc2c(NCCCNC(=O)C34CC5CC(CC(C5)C3)C4)c(F)c(N)c3c(=O)c(C(=O)O)cn1c23 [compound 80]
- IC50 ([2]; Table 2): < 100 nM
- inhibition in vivo at 300 mg/kg [1, 5]: 5 to 10%

Compound: C[C@H]1COc2c(NCCNC3=NS(=O)(=O)c4ccccc43)c(F)c(N)c3c(=O)c(C(=O)O)cn1c23 [Example 113]
- IC50 ([2]; Table 2): < 100 nM
- inhibition in vivo at 300 mg/kg [1, 5]: < 5%

Compound: C[C@H]1COc2c(NCCS(=O)(=O)N3CCCCC3)c(F)c(N)c3c(=O)c(C(=O)O)cn1c23 [Example 112]
- IC50 ([2]; Table 2): < 100 nM
- inhibition in vivo at 300 mg/kg [1, 5]: < 5%

Compound: C[C@H]1COc2c(NCCCn3ccnc3)c(F)c(N)c3c(=O)c(C#N)cn1c23 [Example 114]
- IC50 ([2]; Table 2): < 100 nM
- inhibition in vivo at 300 mg/kg [1, 5]: > 20%

Compound: CC(C)[C@H]1COc2c(NCCCn3ccnc3)c(F)c(N)c3c(=O)c(C(=O)O)cn1c23 [compound 55]
- inhibition in vivo at 300 mg/kg ([1]; po): 10 to 20%

Compound: C[C@H]1COc2c(NCCCc3ccc(F)cc3)c(F)c(N)c3c(=O)c(C(=O)O)cn1c23 [compound 72]
- IC50 ([2]; Table 2): < 100 nM
- inhibition in vivo at 300 mg/kg [1, 5]: > 20%

Compound: C[C@H]1COc2c(NCCCn3ccnc3)c(F)c(N)c3c(=O)c(C(N)=O)cn1c23 [Example 107]
- IC50 ([2]; Table 2): 100 to 500 nM
- inhibition in vivo at 300 mg/kg [1, 5]: 10 to 20%

Compound: CC1(C)COc2c(NCCNc3ccccn3)c(F)c(N)c3c(=O)c(C(=O)O)cn1c23 [compound 17]
- inhibition in vivo at 300 mg/kg ([1]; po): 10 to 20%

Compound: C[C@H]1COc2c(NCCCc3ccccn3)c(F)c(N)c3c(=O)c(C(=O)O)cn1c23 [compound 70]
- IC50 ([2]; Table 2): < 100 nM
- inhibition in vivo at 300 mg/kg [1, 5]: > 20%

Compound: C[C@H]1COc2c(NCCCN3CCCc4ccccc43)c(F)c(N)c3c(=O)c(C(=O)O)cn1c23 [compound 67]
- IC50 ([2]; Table 2): < 100 nM
- inhibition in vivo at 300 mg/kg [1, 5]: 10 to 20%

Compound: C[C@H]1COc2c(NCCNc3ccccn3)c(F)c(N)c3c(=O)c(C(N)=O)cn1c23 [Example 109]
- IC50 ([2]; Table 2): < 100 nM
- inhibition in vivo at 300 mg/kg [1, 5]: 10 to 20%

Compound: CC1COc2c(NCCNc3cc(F)cc(F)n3)c(F)c(N)c3c(=O)c(C(=O)O)cn1c23 (stereo not shown) [compound 15]
- IC50 ([2]; Table 2): < 100 nM
- MIC (E. coli, ATCC8739; [6]): 0.5 to 10 µM (≈ 0.225 to 4.49 µg/mL)
- MIC (S. aureus Smith; [7]): 0.5 to 10 µM (≈ 0.225 to 4.49 µg/mL)

Compound: C[C@@H]1COc2c(NCCNc3ccccn3)c(F)c(N)c3c(=O)c(C(=O)O)cn1c23 [compound 30]
- IC50 ([2]; Table 2): 500 to 1000 nM
- MIC (E. coli, ATCC8739; [6]): > 50 µM
- MIC (S. aureus Smith; [7]): > 50 µM

Compound: Nc1c(F)c(NCCc2c[nH]c3ccccc23)c(F)c2c1c(=O)ccn2C1CC1 [compound 28]
- IC50 ([2]; Table 1): 100 to 500 nM
- MIC (E. coli, ATCC8739; [3]): > 50 µM
- MIC (S. aureus Smith; [4]): > 50 µM

Compound: COc1c(NCCCc2ccccc2)c(F)c(N)c2c(=O)ccn(C3CC3)c12 [compound 1]
- IC50 ([2]; Table 2): 100 to 500 nM
- MIC (E. coli, ATCC8739; [6]): 10 to 50 µM (≈ 3.81 to 19.1 µg/mL)
- MIC (S. aureus Smith; [7]): 10 to 50 µM (≈ 3.81 to 19.1 µg/mL)
